Experimental data from patent publication US20070128217A1 (priority 2003, published 2007).

Assays:
[1] = tested on: recombinant human anti-SARS-CoV antibody 03-018; assay type: binding; parameters: Binding of antibody 03-018 to linear peptides of the N protein of SARS-CoV Urbani / Binding of antibody 03-018 to looped/cyclic peptides of the N protein of SARS-CoV Urbani: unit not given here
[2] = tested on: rabbit serum obtained by immunizing a rabbit with the SARS-CoV strain Frankfurt 1; assay type: binding; parameters: Binding of a rabbit serum to linear peptides / Binding of a rabbit serum to looped peptides / Rabbit serum linear peptides / Rabbit serum looped peptides / Binding of a rabbit serum to linear peptides of protein N of SARS-CoV Urbani (Rabbit serum linear peptides) / Binding of a rabbit serum to looped/cyclic peptides of protein N of SARS-CoV Urbani (Rabbit serum looped peptides): unit not given here
[3] = tested on: control sera (pooled serum of ten healthy LUMC hospital workers; commercial negative donor pooled serum from the Dutch bloodbank); assay type: binding, human; parameters: Binding of Control serum LUMC to linear peptides / Binding of Control serum Blood-bank to linear peptides / Binding of Control serum LUMC to looped peptides / Binding of Control Serum Blood-Bank to Looped peptides / Binding of Control serum LUMC to linear peptides of the protein M of SARS-CoV Urbani / Binding of Control serum Blood-bank to linear peptides of the protein M of SARS-CoV Urbani / Binding of Control serum LUMC to looped peptides of the protein M of SARS-CoV Urbani / Binding of Control Serum Blood-Bank to Looped peptides of the protein M of SARS-CoV Urbani: unit not given here
[4] = tested on: antibodies in sera from SARS patients (sera 1a, 1b, 2, 6, 37, 62, London, SARS-yellow, SARS-green); assay type: binding, human; parameters: Binding of serum 6 to linear peptides of protein X1 of SARS-CoV Urbani / Binding of serum 37 to linear peptides of protein X1 of SARS-CoV Urbani / Binding of serum 6 to looped/cyclic peptide (PEPSCAN-ELISA) / Binding of serum 37 to looped/cyclic peptide (PEPSCAN-ELISA) / Binding of serum 37 to looped/cyclic peptides of protein X1 of SARS-CoV Urbani / Binding of serum 6 to linear peptides of protein X2 / Binding of serum 37 to linear peptides of protein X2 / Binding of serum 37 to looped/cyclic peptides of protein X2 of SARS-CoV Urbani / Binding of serum 6 to linear peptides of protein M of SARS-CoV Urbani / Binding of serum 37 to linear peptides of protein M of SARS-CoV Urbani / Binding of serum 6 to looped/cyclic peptides of protein M of SARS-CoV Urbani / Binding of serum 37 to looped/cyclic peptides of protein M of SARS-CoV Urbani / Binding of serum 6 to linear peptides of protein X3 of SARS-CoV Urbani / Binding of serum 37 to linear peptides of protein X3 of SARS-CoV Urbani / Binding of serum 37 to looped/cyclic peptides of protein X3 of SARS-CoV Urbani / Binding of serum 6 to linear peptides of protein X4 of SARS-CoV Urbani / Binding of serum 37 to linear peptides of protein X4 of SARS-CoV Urbani / Binding of serum 37 to looped/cyclic peptides of protein X4 of SARS-CoV Urbani / Binding of serum 6 to linear peptides of protein X5 of SARS-CoV Urbani / Binding of serum 37 to linear peptides of protein X5 of SARS-CoV Urbani / Binding of serum 37 to looped/cyclic peptides of protein X5 of SARS-CoV Urbani / Binding of serum 6 to linear peptides of protein N of SARS-CoV Urbani / Binding of serum 37 to linear peptides of protein N of SARS-CoV Urbani / Binding of serum 6 to linear peptide (PEPSCAN-ELISA) / Binding of serum 1a to looped/cyclic peptides of protein N of SARS-CoV Urbani / Binding of serum 1b to looped/cyclic peptides of protein N of SARS-CoV Urbani / Binding of serum 2 to looped/cyclic peptides of protein N of SARS-CoV Urbani / Binding of serum 6 to looped/cyclic peptides of protein N of SARS-CoV Urbani / Binding of serum 37 to looped/cyclic peptides of protein N of SARS-CoV Urbani / Binding of serum 62 to looped/cyclic peptides of protein N of SARS-CoV Urbani / Binding of serum London to looped/cyclic peptides of protein N of SARS-CoV Urbani / Binding of serum SARS-green to looped/cyclic peptides of protein N of SARS-CoV Urbani: unit not given here

| Sequence | Binding of antibody 03-018 to linear peptides of the N protein of SARS-CoV Urbani [1] | Binding of antibody 03-018 to looped/cyclic peptides of the N protein of SARS-CoV Urbani [1] | Binding of a rabbit serum to linear peptides of protein N of SARS-CoV Urbani (Rabbit serum linear peptides) [2] | Binding of a rabbit serum to looped/cyclic peptides of protein N of SARS-CoV Urbani (Rabbit serum looped peptides) [2] | Binding of Control Serum Blood-Bank to Looped peptides [3] | Binding of Control serum Blood-bank to linear peptides [3] | Binding of Control serum LUMC to linear peptides [3] | Binding of Control serum LUMC to looped peptides [3] | Binding of serum 1a to looped/cyclic peptides of protein N of SARS-CoV Urbani [4] | Binding of serum 1b to looped/cyclic peptides of protein N of SARS-CoV Urbani [4] | Binding of serum 2 to looped/cyclic peptides of protein N of SARS-CoV Urbani [4] | Binding of serum 6 to looped/cyclic peptides of protein N of SARS-CoV Urbani [4] | Binding of serum 37 to looped/cyclic peptides of protein N of SARS-CoV Urbani [4] | Binding of serum 62 to looped/cyclic peptides of protein N of SARS-CoV Urbani [4] | Binding of serum London to looped/cyclic peptides of protein N of SARS-CoV Urbani [4] | Binding of serum SARS-green to looped/cyclic peptides of protein N of SARS-CoV Urbani [4] | Binding of serum SARS-yellow to looped/cyclic peptides of protein N of SARS-CoV Urbani [4] | Binding of serum 1a to linear peptides of protein N of SARS-CoV Urbani [4] | Binding of serum 1b to linear peptides of protein N of SARS-CoV Urbani [4] | Binding of serum 2 to linear peptides of protein N of SARS-CoV Urbani [4] | other results |
| --- | --- | --- | --- | --- | --- | --- | --- | --- | --- | --- | --- | --- | --- | --- | --- | --- | --- | --- | --- | --- | --- |
| RSSSRSRGNSRNSTP | 0.1 | 0.2 | 0.1 | 0.2 | 0.4 | 0.9 | 0.8 | 0.4 | 0.2 | 0.2 | 0.2 | 0.1 | 0.5 | 0.3 | 0.3 | 0.2 | 0.3 | – | – | – | Binding of serum 1a to linear peptide (PEPSCAN-ELISA) [4]: 0.3; Binding of serum 1b to linear peptide (PEPSCAN-ELISA) [4]: 0.1; Binding of serum 2 to linear peptide (PEPSCAN-ELISA) [4]: 0.2; Binding of serum 6 to linear peptide (PEPSCAN-ELISA) [4]: 0.2; Binding of serum 37 to linear peptide (PEPSCAN-ELISA) [4]: 0.5; Binding of serum 62 to linear peptide (PEPSCAN-ELISA) [4]: 0.6; Binding of serum London to linear peptide (PEPSCAN-ELISA) [4]: 0.5; Binding of serum SARS-green to linear peptide (PEPSCAN-ELISA) [4]: 0.2; Binding of serum SARS-yellow to linear peptide (PEPSCAN-ELISA) [4]: 0.5 |
| RVRGGDGKMKELSPR | 0.1 | 0.2 | 0.2 | 0.6 | 0.7 | 0.8 | 0.9 | 0.7 | 0.3 | 0.2 | 0.4 | 0.4 | 0.6 | 0.5 | 0.4 | 0.1 | 0.6 | 0.3 | 0.2 | 0.3 | Binding of serum 6 to linear peptides of protein N of SARS-CoV Urbani [4]: 0.2; Binding of serum 37 to linear peptides of protein N of SARS-CoV Urbani [4]: 0.7; Binding of serum 62 to linear peptides of protein N of SARS-CoV Urbani [4]: 0.8; Binding of serum London to linear peptides of protein N of SARS-CoV Urbani [4]: 0.5; Binding of serum SARS-green to linear peptides of protein N of SARS-CoV Urbani [4]: 0.6; Binding of serum SARS-yellow to linear peptides of protein N of SARS-CoV Urbani [4]: 0.7 |
| RWYFYYLGTGPEASL | 0.1 | 0.2 | 0.2 | 0.6 | 0.7 | 0.6 | 0.7 | 0.8 | 0.4 | 0.4 | 0.5 | 0.3 | 1.1 | 0.9 | 0.5 | 0.8 | 0.7 | 0.3 | 0.2 | 0.2 | Binding of serum 6 to linear peptides of protein N of SARS-CoV Urbani [4]: 0.2; Binding of serum 37 to linear peptides of protein N of SARS-CoV Urbani [4]: 0.8; Binding of serum 62 to linear peptides of protein N of SARS-CoV Urbani [4]: 0.8; Binding of serum London to linear peptides of protein N of SARS-CoV Urbani [4]: 0.4; Binding of serum SARS-green to linear peptides of protein N of SARS-CoV Urbani [4]: 0.3; Binding of serum SARS-yellow to linear peptides of protein N of SARS-CoV Urbani [4]: 0.6 |
